In data set [1] the test system is ICR mice. Briefly: Straub tail behaviour (indicator of CNS activity) in writhing-study mice. Conditions: any doses (1 to 128 mg/kg IP). On the technique in general: Writhing tests count abdominal constrictions after an irritant is injected.
The test system of data set [2] is ICR mice. Kind of data set: Deaths and adverse signs observed in writhing-study mice. Conditions: 128 mg/kg IP. The class given is in vivo. As for the experimental part: (§1) Testing on compound KRS-6-48 was carried out under contract by MDS Services—Taiwan Ltd. KRS-6-48 was evaluated for possible analgesic activity in the phenylquinone-induced writhing model in mice (Siegmund et al, 1957). A serial 2-fold dosage variance was used in the test, from 128 mg/kg to 1 mg/kg (8 doses in total). Groups of 3 male or female ICR mice weighing 22±2 g were employed. Variant doses (1, 2, 4, 8, 16, 32, 64 and 128 mg/kg) of test substances were administered intraperitoneally (IP). A vehicle of 2% Tween 80 in 0.9% NaCl was used for the intraperitoneal injection. The control group received vehicle alone. […] A reduction in the number of writhes by 50 percent or more (≧50%) relative to the vehicle-treated group indicated possible analgesic activity.
(§2) In each case, a serial 2-fold dosage variance was used in the test, from 128 mg/kg to 1 mg/kg (8 doses in total). Groups of 3 male or female ICR mice weighing 22±2 g were employed. Variant doses (1, 2, 4, 8, 16, 32, 64 and 128 mg/kg) of test substances were administered intraperitoneally (IP). A vehicle of 2% Tween 80 in 0.9% NaCl was used for the intraperitoneal injection. The control group received vehicle alone. […] A reduction in the number of writhes by 50 percent or more (≧50%) relative to the vehicle-treated group indicated possible analgesic activity.

Another data set deals with T1, human κ-opiate receptor (Homo sapiens, UniProt P41145).
T1 construct: purchased MDS Pharma Services 260210
T1 sequence (P41145 whole entry): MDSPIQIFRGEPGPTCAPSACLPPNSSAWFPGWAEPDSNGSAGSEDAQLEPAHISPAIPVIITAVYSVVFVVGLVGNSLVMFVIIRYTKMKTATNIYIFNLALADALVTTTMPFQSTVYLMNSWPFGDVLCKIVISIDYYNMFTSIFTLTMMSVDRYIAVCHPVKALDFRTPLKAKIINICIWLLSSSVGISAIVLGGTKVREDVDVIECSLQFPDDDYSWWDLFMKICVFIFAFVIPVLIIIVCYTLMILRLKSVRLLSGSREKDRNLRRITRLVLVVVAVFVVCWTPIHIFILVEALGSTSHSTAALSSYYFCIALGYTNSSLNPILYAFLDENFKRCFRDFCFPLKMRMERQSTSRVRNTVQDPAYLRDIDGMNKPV
Briefly: In vitro opiate receptor radioligand binding assay (MDS 260210). Conditions: test compound 10 μM, read-out: Percentage Inhibition of Radioligand Binding. How it is done: (§3) To characterise the target specificity of the compounds, KRS-6-41, KRS-6-48 and KRS-6-51 were tested at a concentration of 10 μM for their ability to inhibit the binding of a radioligand to human δ-, κ-, or μ-opiate receptors in vitro using commercially available assays (MDS Pharma Services; assay catalogue numbers 260110, 260210 and 260410 respectively).

In another data set the target is T2, human μ-opiate receptor (Homo sapiens, UniProt P35372).
T2 construct: purchased MDS Pharma Services 260410
T2 sequence (P35372 whole entry): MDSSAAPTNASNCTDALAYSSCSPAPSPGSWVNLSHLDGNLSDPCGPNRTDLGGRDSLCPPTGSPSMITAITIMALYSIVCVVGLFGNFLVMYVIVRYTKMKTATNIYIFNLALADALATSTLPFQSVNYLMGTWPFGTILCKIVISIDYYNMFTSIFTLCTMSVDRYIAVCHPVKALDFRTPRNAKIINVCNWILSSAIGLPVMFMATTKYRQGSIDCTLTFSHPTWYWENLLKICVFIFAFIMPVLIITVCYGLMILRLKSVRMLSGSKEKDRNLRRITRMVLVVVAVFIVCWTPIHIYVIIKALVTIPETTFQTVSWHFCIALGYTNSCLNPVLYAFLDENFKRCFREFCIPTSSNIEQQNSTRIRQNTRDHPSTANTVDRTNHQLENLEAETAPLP
Briefly: In vitro opiate receptor radioligand binding assay (MDS 260410). The conditions noted are these: test compound 10 μM, read-out: Percentage Inhibition of Radioligand Binding. As for the experimental part: as §3

Data set [3] concerns ICR mice. Kind of data set: Phenylquinone-induced writhing model in mice (writhes counted in following 5-10 minute period). The format is in vivo. Conditions: for No. of Writhings, Individual: individual mice; for % Inhibition: relative to vehicle group. As for the experimental part: as §1
Testing on compounds KRS-6-41, KRS-6-51, and KRS-6-71 was also carried out under contract by MDS Services—Taiwan Ltd. The study was designed to evaluate the effects of the compounds as analgesics in the phenylquinone-induced writhing assay described in detail in Example 10 (Siegmund et al, 1957).
as §2

The target in the next data set is T3, human δ-opiate receptor (Homo sapiens, UniProt P41143).
T3 construct: purchased MDS Pharma Services 260110
T3 sequence (P41143 whole entry): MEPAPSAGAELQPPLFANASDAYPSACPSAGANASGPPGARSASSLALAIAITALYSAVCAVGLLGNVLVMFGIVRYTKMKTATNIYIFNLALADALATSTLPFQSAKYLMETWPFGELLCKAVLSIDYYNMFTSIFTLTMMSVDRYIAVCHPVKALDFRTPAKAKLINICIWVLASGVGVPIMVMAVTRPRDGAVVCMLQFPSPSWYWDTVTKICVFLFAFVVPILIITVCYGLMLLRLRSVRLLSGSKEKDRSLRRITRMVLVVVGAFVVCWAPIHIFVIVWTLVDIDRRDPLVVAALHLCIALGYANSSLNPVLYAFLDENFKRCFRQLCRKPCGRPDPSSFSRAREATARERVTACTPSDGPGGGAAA
Kind of data set: In vitro opiate receptor radioligand binding assay (MDS 260110). Conditions: test compound 10 μM, read-out: Percentage Inhibition of Radioligand Binding. As for the experimental part: as §3

Data on three molecules can be found in US20060111381A1, “Amidine compounds” (priority 2002, published 2006).

Several values for one entry are separate records, joined by “and”; a condition that tells them apart may be missing. Equal entries are not always repeated. Structures can show the parent of a compound that is named as a salt.

A word on the melting point: it is the temperature of the solid-liquid transition. The molecule `CCC(=Nc1ccccc1)NCCCN1CC[C@]23c4c5ccc(O)c4O[C@H]2[C@@H](O)C=CC3[C@H]1C5` (stereo partly drawn) (as salt: HCl) [KRS-6-48, (5α,6α)-7,8-didehydro-4,5-epoxy-17-((N-phenylpropionamidino)-propyl)morphinan, 3,6-diol] came in with a melting point of 188 to 190 °C.

As a reminder, the inhibition is the relative decrease from the control value, in per cent. Usually % Inhibition stands for the share of the control response that was lost under treatment. A lower % Inhibition goes with a weak effect. For the molecule `CC(=Nc1ccccc1)NCCCN1CC[C@]23c4c5ccc(O)c4O[C@H]2[C@@H](O)C=CC3[C@H]1C5` (stereo partly drawn) [KRS-6-51, (5α,6α)-7,8-didehydro-4,5-epoxy-17-((N-phenylacetamidino)-propyl)morphinan, 3,6-diol], the Straub tail behaviour entry in the data set with ICR mice [1] is listed as “None of the test animals exhibited Straub tail behaviour”. Moreover, in the data set on ICR mice [2], the “test animals exhibiting tremors and edema” value is 2 of the 3. Also, in the data set with ICR mice [2] (within 15 minutes), the “test animals died within 15 minutes” value is 21 of the 3. Further, the inhibition at 10 µM was determined as 54% on human κ-opiate receptor, 97% on human μ-opiate receptor and 37% on human δ-opiate receptor. Further, the “No. of Writhings, Average” value is reported as 12 with ICR mice [3] (1 mg/kg IP); 11 in the data set with ICR mice [3] (2 mg/kg IP); 10 in the data set on ICR mice [3] (4 mg/kg IP); 8 in the data set on ICR mice [3] (8 mg/kg IP); 8 in the data set on ICR mice [3] (16 mg/kg IP); 5 with ICR mice [3] (32 mg/kg IP). The “No. of Writhings, Average” value in the data set with ICR mice [3] (64 mg/kg IP) is on record as 0. The “No. of Writhings, Individual” value in the data set on ICR mice [3] (1 mg/kg IP) was 11 and 14 and 12; with ICR mice [3] (2 mg/kg IP) it was 18 and 9 and 7; in the data set with ICR mice [3] (4 mg/kg IP), 10 and 13 and 7; with ICR mice [3] (8 mg/kg IP), 9 and 8 (2×); with ICR mice [3] (16 mg/kg IP), 12 and 4 and 7; in the data set with ICR mice [3] (32 mg/kg IP), 3 and 5 and 7. Besides, the “No. of Writhings, Individual” value with ICR mice [3] (64 mg/kg IP) is 0; in the data set on ICR mice [3] (128 mg/kg IP), “died and 0 (2×)”. The “% Inhibition” value with ICR mice [3] (1 mg/kg IP) came out at 20%; in the data set on ICR mice [3] (2 mg/kg IP) it was 27%; in the data set with ICR mice [3] (4 mg/kg IP), 33%; with ICR mice [3] (8 mg/kg IP) it was 47%; with ICR mice [3] (16 mg/kg IP), 47%; in the data set on ICR mice [3] (32 mg/kg IP), 67%. The “% Inhibition” value with ICR mice [3] (64 mg/kg IP) is listed as 100%. Moreover, the “analgesic activity in writhing model (in words)” value with ICR mice [3] (at doses of 64 and 32 mg/kg IP) was “significant activity”.

With `CCC(=Nc1ccccc1CC)NCCCN1CC[C@]23c4c5ccc(O)c4O[C@H]2[C@@H](O)C=CC3[C@H]1C5` (stereo partly drawn) [KRS-6-71, (5α,6α)-7,8-didehydro-4,5-epoxy-17-((N-(2-ethylphenyl)propionamidino)-propyl)morphinan, 3,6-diol], the melting point lay within 58 to 59 °C. For the same molecule, the Straub tail behaviour result with ICR mice [1] is reported as “None of the test animals exhibited Straub tail behaviour”. Also, in the data set on ICR mice [3] (1 mg/kg IP), the “No. of Writhings, Average” value stood at 18; the “No. of Writhings, Individual” value is 24 and 13 and 18; the “% Inhibition” value is listed as 22%. Also, in the data set with ICR mice [3] (2 mg/kg IP), the “No. of Writhings, Average” value came to 14; the “No. of Writhings, Individual” value was 2 and 12 and 18; the “% Inhibition” value is listed as 39%. In the data set on ICR mice [3] (4 mg/kg IP), the “No. of Writhings, Average” value was found to be 11; the “No. of Writhings, Individual” value is 16 (2×) and 2; the “% Inhibition” value worked out at 52%. In the data set with ICR mice [3] (8 mg/kg IP), the “No. of Writhings, Average” value came to 11; the “No. of Writhings, Individual” value was 0 and 18 and 15; the “% Inhibition” value amounted to 52%. Moreover, in the data set on ICR mice [3] (16 mg/kg IP), the “No. of Writhings, Average” value is 7; the “No. of Writhings, Individual” value is 13 and 0 and 8; the “% Inhibition” value turned out to be 70%. Also, in the data set with ICR mice [3] (32 mg/kg IP), the “No. of Writhings, Average” value is on record as 7; the “No. of Writhings, Individual” value is 6 and 0 and 15; the “% Inhibition” value was found to be 70%. In the data set on ICR mice [3] (64 mg/kg IP), the “No. of Writhings, Average” value amounted to 1; the “No. of Writhings, Individual” value was 0 (2×) and 3; the “% Inhibition” value was found to be 96%. Also, in the data set with ICR mice [3] (128 mg/kg IP), the “No. of Writhings, Average” value is listed as 0; the “No. of Writhings, Individual” value is 0; the “% Inhibition” value was 100%.
